Activity calls are given as the source filed them. The calls are words filed in the database; no cut-off is given here.
Columns and labels:
Rattus norvegicus [1] = test: Hepatoprotective activity in thioacetamide-induced Sprague-Dawley rat liver cirrhosis model assessed as reversal of thioacetamide-induced change in serum AST level at 200 mg/kg administered intragastrically qd for 2 weeks by […]; type: functional, organism-based; parameters: dose 200 mg/kg
Rattus norvegicus [2] = test: Hepatoprotective activity in thioacetamide-induced Sprague-Dawley rat liver cirrhosis model assessed as reversal of thioacetamide-induced change in serum TBIL level at 200 mg/kg administered intragastrically qd for 2 weeks by […]; type: functional, organism-based; parameters: dose 200 mg/kg
Rattus norvegicus [3] = test: Hepatoprotective activity in thioacetamide-induced Sprague-Dawley rat liver cirrhosis model assessed as downregulation of CYP1A2 protein level at 200 mg/kg administered intragastrically qd for 2 weeks by Western blotting analysis relative to control; type: functional, organism-based; parameters: dose 200 mg/kg
Rattus norvegicus [4] = test: Hepatoprotective activity in thioacetamide-induced Sprague-Dawley rat liver cirrhosis model assessed as downregulation of CYP2C6 protein level at 200 mg/kg administered intragastrically qd for 2 weeks by Western blotting analysis relative to control; type: functional, organism-based; parameters: dose 200 mg/kg
Rattus norvegicus [5] = test: Hepatoprotective activity in thioacetamide-induced Sprague-Dawley rat liver cirrhosis model assessed as reversal of thioacetamide-induced change in serum ALT level at 200 mg/kg administered intragastrically qd for 2 weeks by […]; type: functional, organism-based; parameters: dose 200 mg/kg
Rattus norvegicus [6] = test: Upregulation of CYP3A2 in Sprague-Dawley rat liver at 200 mg/kg administered intragastrically qd for 2 weeks by Western blotting analysis; type: ADME, organism-based; parameters: dose 200 mg/kg, route intragastric; settings: in vivo, po, 336 h
Rattus norvegicus [7] = test: Upregulation of CYP2E1 in Sprague-Dawley rat liver at 200 mg/kg administered intragastrically qd for 2 weeks by Western blotting analysis; type: ADME, organism-based; parameters: dose 200 mg/kg, route intragastric; settings: in vivo, po, 336 h
Liver microsome [8] = test: Reversal of thioacetamide-induced CYP2C6 inactivation in rat liver microsomes at 2 to 50 uM in presence of NADPH; type: functional
Liver microsome [9] = test: Reversal of thioacetamide-induced CYP2C6 inactivation in rat liver microsomes at 0.2 to 5 mM in presence of NADPH; type: functional
Liver microsome [10] = test: Reversal of thioacetamide-induced CYP1A2 inactivation in rat liver microsomes at 2 to 50 uM in presence of NADPH; type: functional
Liver microsome [11] = test: Reversal of thioacetamide-induced CYP1A2 inactivation in rat liver microsomes at 0.2 to 5 mM in presence of NADPH; type: functional
Liver microsome [12] = test: Reversal of thioacetamide-induced CYP3A2 inactivation in rat liver microsomes at 2 to 50 uM in presence of NADPH; type: functional
Liver microsome [13] = test: Reversal of thioacetamide-induced CYP3A2 inactivation in rat liver microsomes at 0.2 to 5 mM in presence of NADPH; type: functional
Liver microsome [14] = test: Reversal of thioacetamide-induced CYP2E1 inactivation in rat liver microsomes at 2 to 50 uM in presence of NADPH; type: functional
Liver microsome [15] = test: Reversal of thioacetamide-induced CYP2E1 inactivation in rat liver microsomes at 0.2 to 5 mM in presence of NADPH; type: functional
Rattus norvegicus [16] = test: Hepatoprotective activity in thioacetamide-induced Sprague-Dawley rat liver cirrhosis model assessed as downregulation of CYP3A2 protein level at 200 mg/kg administered intragastrically qd for 2 weeks by Western blotting analysis relative to control; type: functional; settings: route intragastric
Rattus norvegicus [17] = test: Hepatoprotective activity in thioacetamide-induced Sprague-Dawley rat liver cirrhosis model assessed as downregulation of CYP2E1 protein level at 200 mg/kg administered intragastrically qd for 2 weeks by Western blotting analysis relative to control; type: functional; settings: route intragastric
Rattus norvegicus [18] = test: Downregulation of CYP1A2 in Sprague-Dawley rat liver at 200 mg/kg administered intragastrically qd for 2 weeks by Western blotting analysis; type: ADME, organism-based; parameters: dose 200 mg/kg, route intragastric; settings: in vivo, po, 336 h
Rattus norvegicus [19] = test: Upregulation of CYP2C6 in Sprague-Dawley rat liver at 200 mg/kg administered intragastrically qd for 2 weeks by Western blotting analysis; type: ADME, organism-based; parameters: dose 200 mg/kg, route intragastric; settings: in vivo, po, 336 h

Activity (Rattus norvegicus [6]): Active
Activity (Rattus norvegicus [7]): Active
Activity (Rattus norvegicus [18]): Active
Activity (Rattus norvegicus [19]): Active
Structure (SMILES): COC(=O)c1cc(OC)c2c(c1-c1c(C(=O)OC)cc(OC)c3c1OCO3)OCO2 [BIFENDATE]
Activity (Rattus norvegicus [1]): Active
Activity (Rattus norvegicus [2]): Active
Activity (Rattus norvegicus [3]): Active
Activity (Rattus norvegicus [4]): Active
Activity (Rattus norvegicus [5]): Active
Activity (Liver microsome [8]): inactive
Activity (Liver microsome [9]): inactive
Activity (Liver microsome [10]): inactive
Activity (Liver microsome [11]): inactive
Activity (Liver microsome [12]): inactive
Activity (Liver microsome [13]): inactive
Activity (Liver microsome [14]): inactive
Activity (Liver microsome [15]): inactive
fold change (FC) (Rattus norvegicus [16]): 1.56
fold change (FC) (Rattus norvegicus [17]): 2.26

Source: ChEMBL document CHEMBL3526084, “Cytochrome P450 dysregulations in thioacetamide-induced liver cirrhosis in rats and the counteracting effects of hepatoprotective agents” (Drug Metab Dispos, 2012)
